Assay: xn = mol fraction of the nth substance listed
Conditions: 100 kPa, Liquid; for electrical conductivity: Alternating current cell with electrodes; for mass density: Vibrating tube method; for viscosity: Capillary tube (Ostwald / Ubbelohde) method

CCCC[N+]1(C)CCCC1.N#CN=C=[N-] [1-butyl-1-methylpyrrolidinium dicyanamide] + O=C1CCCO1
Conditions | electrical conductivity [S/m]
303.15 K, Frequency=0.00857143 MHz, x1 = 0.2493 | 2.86
303.15 K, Frequency=0.00857143 MHz, x1 = 0.3029 | 2.79
303.15 K, Frequency=0.00857143 MHz, x1 = 0.3845 | 2.62
303.15 K, Frequency=0.00857143 MHz, x1 = 0.4985 | 2.33
303.15 K, Frequency=0.00857143 MHz, x1 = 0.6954 | 1.913
303.15 K, Frequency=0.00857143 MHz, x1 = 0.9013 | 1.609
303.15 K, Frequency=0.00857143 MHz, x1 = 1 | 1.527
303.15 K, Frequency=0.00892857 MHz, x1 = 0.0463 | 1.58
303.15 K, Frequency=0.00892857 MHz, x1 = 0.0987 | 2.38
303.15 K, Frequency=0.00892857 MHz, x1 = 0.1449 | 2.71
303.15 K, Frequency=0.00892857 MHz, x1 = 0.1859 | 2.902
303.15 K, Frequency=0.00892857 MHz, x1 = 0.2493 | 2.86
303.15 K, Frequency=0.00892857 MHz, x1 = 0.3029 | 2.79
303.15 K, Frequency=0.00892857 MHz, x1 = 0.3845 | 2.62
303.15 K, Frequency=0.00892857 MHz, x1 = 0.4985 | 2.33
303.15 K, Frequency=0.00892857 MHz, x1 = 0.6954 | 1.913
303.15 K, Frequency=0.00892857 MHz, x1 = 0.9013 | 1.609
303.15 K, Frequency=0.00892857 MHz, x1 = 1 | 1.527
303.15 K, Frequency=0.00961538 MHz, x1 = 0.0463 | 1.58
303.15 K, Frequency=0.00961538 MHz, x1 = 0.0987 | 2.38
303.15 K, Frequency=0.00961538 MHz, x1 = 0.1449 | 2.71
303.15 K, Frequency=0.00961538 MHz, x1 = 0.1859 | 2.903
303.15 K, Frequency=0.00961538 MHz, x1 = 0.2493 | 2.86
303.15 K, Frequency=0.00961538 MHz, x1 = 0.3029 | 2.79
303.15 K, Frequency=0.00961538 MHz, x1 = 0.3845 | 2.62
303.15 K, Frequency=0.00961538 MHz, x1 = 0.4985 | 2.33
303.15 K, Frequency=0.00961538 MHz, x1 = 0.6954 | 1.913
303.15 K, Frequency=0.00961538 MHz, x1 = 0.9013 | 1.609
303.15 K, Frequency=0.00961538 MHz, x1 = 1 | 1.527
303.15 K, Frequency=0.01 MHz, x1 = 0.0463 | 1.58
303.15 K, Frequency=0.01 MHz, x1 = 0.0987 | 2.38
303.15 K, Frequency=0.01 MHz, x1 = 0.1449 | 2.71
303.15 K, Frequency=0.01 MHz, x1 = 0.1859 | 2.903
303.15 K, Frequency=0.01 MHz, x1 = 0.2493 | 2.86
303.15 K, Frequency=0.01 MHz, x1 = 0.3029 | 2.79
303.15 K, Frequency=0.01 MHz, x1 = 0.3845 | 2.62
303.15 K, Frequency=0.01 MHz, x1 = 0.4985 | 2.33
303.15 K, Frequency=0.01 MHz, x1 = 0.6954 | 1.913
303.15 K, Frequency=0.01 MHz, x1 = 0.9013 | 1.609
303.15 K, Frequency=0.01 MHz, x1 = 1 | 1.527
313.15 K, Frequency=0.0005 MHz, x1 = 0.0463 | 1.78
313.15 K, Frequency=0.0005 MHz, x1 = 0.0987 | 2.71
313.15 K, Frequency=0.0005 MHz, x1 = 0.1449 | 3.13
313.15 K, Frequency=0.0005 MHz, x1 = 0.1859 | 3.34
313.15 K, Frequency=0.0005 MHz, x1 = 0.2493 | 3.35
313.15 K, Frequency=0.0005 MHz, x1 = 0.3029 | 3.302
313.15 K, Frequency=0.0005 MHz, x1 = 0.3845 | 3.15
313.15 K, Frequency=0.0005 MHz, x1 = 0.4985 | 2.87
313.15 K, Frequency=0.0005 MHz, x1 = 0.6954 | 2.421
313.15 K, Frequency=0.0005 MHz, x1 = 0.9013 | 2.08
313.15 K, Frequency=0.0005 MHz, x1 = 1 | 1.99
313.15 K, Frequency=0.001 MHz, x1 = 0.0463 | 1.78
313.15 K, Frequency=0.001 MHz, x1 = 0.0987 | 2.71
313.15 K, Frequency=0.001 MHz, x1 = 0.1449 | 3.13
313.15 K, Frequency=0.001 MHz, x1 = 0.1859 | 3.35
313.15 K, Frequency=0.001 MHz, x1 = 0.2493 | 3.36
313.15 K, Frequency=0.001 MHz, x1 = 0.3029 | 3.309
313.15 K, Frequency=0.001 MHz, x1 = 0.3845 | 3.15
313.15 K, Frequency=0.001 MHz, x1 = 0.4985 | 2.87
313.15 K, Frequency=0.001 MHz, x1 = 0.6954 | 2.422
313.15 K, Frequency=0.001 MHz, x1 = 0.9013 | 2.08
313.15 K, Frequency=0.001 MHz, x1 = 1 | 2
313.15 K, Frequency=0.0015 MHz, x1 = 0.0463 | 1.79
313.15 K, Frequency=0.0015 MHz, x1 = 0.0987 | 2.72
313.15 K, Frequency=0.0015 MHz, x1 = 0.1449 | 3.13
313.15 K, Frequency=0.0015 MHz, x1 = 0.1859 | 3.35
313.15 K, Frequency=0.0015 MHz, x1 = 0.2493 | 3.36
313.15 K, Frequency=0.0015 MHz, x1 = 0.3029 | 3.312
313.15 K, Frequency=0.0015 MHz, x1 = 0.3845 | 3.16
313.15 K, Frequency=0.0015 MHz, x1 = 0.4985 | 2.87
313.15 K, Frequency=0.0015 MHz, x1 = 0.6954 | 2.424
313.15 K, Frequency=0.0015 MHz, x1 = 0.9013 | 2.09
313.15 K, Frequency=0.0015 MHz, x1 = 1 | 2
313.15 K, Frequency=0.002 MHz, x1 = 0.0463 | 1.79
313.15 K, Frequency=0.002 MHz, x1 = 0.0987 | 2.72
313.15 K, Frequency=0.002 MHz, x1 = 0.1449 | 3.13
313.15 K, Frequency=0.002 MHz, x1 = 0.1859 | 3.36
313.15 K, Frequency=0.002 MHz, x1 = 0.2493 | 3.36
313.15 K, Frequency=0.002 MHz, x1 = 0.3029 | 3.314
313.15 K, Frequency=0.002 MHz, x1 = 0.3845 | 3.16
313.15 K, Frequency=0.002 MHz, x1 = 0.4985 | 2.87
313.15 K, Frequency=0.002 MHz, x1 = 0.6954 | 2.424
313.15 K, Frequency=0.002 MHz, x1 = 0.9013 | 2.09

Conditions | electrical conductivity, 313.15 K [S/m] | mass density, 303.15 K [kg/m3] | viscosity, 313.15 K [mPa·s]
x1 = 0.0463 | 1.79 | – | –
x1 = 0.0987 | 2.73 | 1099.02 | 2.18
x1 = 0.1449 | 3.13 | – | –
x1 = 0.1859 | 3.37 | 1083.47 | 3.04
x1 = 0.2493 | 3.36 | – | –
x1 = 0.3029 | 3.319 | 1066.18 | 4.52
x1 = 0.3845 | 3.16 | – | –
x1 = 0.4985 | 2.88 | 1044.28 | 7.85
x1 = 0.6954 | 2.426 | 1028.17 | 12.31
x1 = 0.9013 | 2.09 | 1015.57 | 18.01
x1 = 1 | 2 | 1010.64 | 21.07

Reference: the NIST ThermoML archive (doi:10.1016/j.jct.2015.08.014)
